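Exposure lasted 48 hours, with cells grown in 96-well plates and compounds tested at five concentrations. Abbreviation: GI50, concentration required for 50% inhibition of growth.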 Active and inactive are the calls of the source. No stated cut-off is given here; in the data, active = GI50 up to about 1.1 µM and inactive = higher.
Legend:
Assay in all cases: growth of human tumour cells (NCI), 48 h
K562 = tested on: K562
NCI-H460 = tested on: NCI-H460
786-0 = tested on: 786-0
EKVX = tested on: EKVX
HCC 2998 = tested on: HCC 2998
ACHN = tested on: ACHN
OVCAR-3 = tested on: OVCAR-3
DLD-1 = tested on: DLD-1
SN12C = tested on: SN12C
SF-539 = tested on: SF-539
OVCAR-5 = tested on: OVCAR-5
NCI-H23 = tested on: NCI-H23
HL-60 = tested on: HL-60
UACC-62 = tested on: UACC-62
M14 = tested on: M14
U-251 = tested on: U-251
SF-268 = tested on: SF-268
CAKI-1 = tested on: CAKI-1
DU-145 = tested on: DU-145
MCF7 = tested on: MCF7

Measured: GI50

CC(C)(C)C1CCC(O)(c2ccccc2)CC1 (centres undefined)
inactive: K562 47.6 µM | NCI-H460 > 100 µM | 786-0 63.2 µM | EKVX > 100 µM | HCC 2998 > 100 µM | ACHN > 100 µM | OVCAR-3 70.1 µM | DLD-1 > 100 µM | SN12C 69.5 µM | SF-539 > 100 µM | OVCAR-5 > 100 µM | NCI-H23 > 100 µM | HL-60 27.4 µM | UACC-62 > 100 µM | M14 71.8 µM | U-251 40.6 µM

O=C(/C=C/c1ccccc1F)c1ccc([N+](=O)[O-])cc1
inactive: K562 5.77 µM | NCI-H460 30.8 µM | 786-0 26.8 µM | EKVX 38.5 µM | HCC 2998 15.6 µM | ACHN 31.2 µM | OVCAR-3 24.6 µM | DLD-1 16.6 µM | SN12C 37.8 µM | SF-268 27.2 µM | NCI-H23 31.2 µM | UACC-62 22.9 µM | M14 26.8 µM | U-251 15.1 µM | CAKI-1 15.5 µM

C#CCNC(=O)NCCCCC(NC(C)=O)C(=O)NCc1ccccc1 (centres undefined)
inactive: K562 > 100 µM | NCI-H460 > 100 µM | 786-0 > 100 µM | EKVX > 100 µM | HCC 2998 > 100 µM | ACHN > 100 µM | OVCAR-3 > 100 µM | DLD-1 > 100 µM | SN12C > 100 µM | SF-268 > 100 µM | SF-539 > 100 µM | OVCAR-5 > 100 µM | NCI-H23 > 100 µM | UACC-62 > 100 µM | M14 > 100 µM | U-251 > 100 µM | CAKI-1 > 100 µM

CC1OC(OP(=O)(OCc2ccccc2)OCc2ccccc2)C(OC(=O)c2ccccc2)C(OC(=O)c2ccccc2)C1I (centres undefined)
inactive: K562 29.3 µM | NCI-H460 34 µM | 786-0 50.9 µM | EKVX 40.9 µM | HCC 2998 54.6 µM | ACHN 32.6 µM | OVCAR-3 46 µM | DLD-1 50 µM | SN12C 20.9 µM | SF-268 52.2 µM | OVCAR-5 98.6 µM | NCI-H23 30.3 µM | HL-60 20.7 µM | UACC-62 48.9 µM | M14 37.6 µM | U-251 50.4 µM | CAKI-1 29.6 µM

COc1ccc(S(=O)(=O)N[C@H](C(=O)O)c2ccccc2)cc1
inactive: K562 > 100 µM | NCI-H460 > 100 µM | 786-0 > 100 µM | EKVX > 100 µM | HCC 2998 > 100 µM | ACHN > 100 µM | OVCAR-3 > 100 µM | DLD-1 > 100 µM | SN12C > 100 µM | SF-268 > 100 µM | SF-539 > 100 µM | OVCAR-5 > 100 µM | NCI-H23 > 100 µM | UACC-62 > 100 µM | M14 > 100 µM | U-251 > 100 µM | CAKI-1 > 100 µM

Cc1ccc2c(c1)-c1c3c(nn1-c1ccccc1)-c1ccccc1SC3O2 (centres undefined)
inactive: K562 > 100 µM | NCI-H460 > 100 µM | 786-0 > 100 µM | EKVX > 100 µM | HCC 2998 > 100 µM | ACHN > 100 µM | OVCAR-3 > 100 µM | DLD-1 > 100 µM | SF-268 > 100 µM | SF-539 > 100 µM | OVCAR-5 97.1 µM | NCI-H23 > 100 µM | HL-60 > 100 µM | U-251 > 100 µM

CCOC(=O)/C(C(=O)Nc1cccc(C(F)(F)F)c1)=C(/N)N1CCOCC1
inactive: K562 > 100 µM | NCI-H460 > 100 µM | 786-0 > 100 µM | EKVX > 100 µM | HCC 2998 > 100 µM | ACHN > 100 µM | DU-145 > 100 µM | OVCAR-3 > 100 µM | SN12C > 100 µM | SF-268 > 100 µM | SF-539 > 100 µM | OVCAR-5 > 100 µM | NCI-H23 > 100 µM | HL-60 > 100 µM | MCF7 > 100 µM | UACC-62 > 100 µM | M14 > 100 µM | U-251 > 100 µM | CAKI-1 > 100 µM

CC(=O)OCC1OC(OC2CC3C(C)(C)C(=O)CC[C@]3(C)C3CC[C@]45C[C@]4(CCC5[C@@H](C)CC(O)C(O)C(C)(C)O)[C@]23C)C(O)C(O)C1O (some centres undefined)
inactive: K562 5.52 µM | NCI-H460 13.6 µM | 786-0 13.6 µM | EKVX 16.3 µM | HCC 2998 10 µM | ACHN 16.4 µM | DU-145 17.1 µM | OVCAR-3 12.7 µM | SN12C 13.4 µM | SF-268 10.1 µM | SF-539 15.3 µM | OVCAR-5 16.7 µM | NCI-H23 17.5 µM | HL-60 2.25 µM | MCF7 4.78 µM | UACC-62 10.5 µM | M14 10.3 µM | U-251 8.13 µM | CAKI-1 17.1 µM

c1ccc2c(c1)SC(=C1Sc3ccccc3S1)S2
inactive: K562 > 100 µM | NCI-H460 55.8 µM | 786-0 > 100 µM | EKVX > 100 µM | HCC 2998 > 100 µM | ACHN > 100 µM | OVCAR-3 > 100 µM | DLD-1 > 100 µM | SN12C > 100 µM | SF-268 > 100 µM | NCI-H23 > 100 µM | UACC-62 > 100 µM | M14 > 100 µM | U-251 > 100 µM | CAKI-1 > 100 µM

N#CC1(Cc2ccc(N)cc2)c2ccccc2C=CN1C(=O)c1ccccc1 (centres undefined)
inactive: K562 26.5 µM | 786-0 50.2 µM | EKVX 38.7 µM | HCC 2998 > 100 µM | ACHN 31.7 µM | OVCAR-3 43.9 µM | DLD-1 40 µM | SN12C 41.2 µM | SF-268 40.6 µM | SF-539 60.5 µM | OVCAR-5 > 100 µM | NCI-H23 47.1 µM | HL-60 15.8 µM | UACC-62 30.8 µM | M14 25.6 µM | U-251 46.7 µM

CCOC(=O)/C=C(\C(=O)OCC)n1ccc(=O)[nH]c1=O
inactive: K562 4.38 µM | NCI-H460 21.7 µM | 786-0 4.85 µM | EKVX 16 µM | HCC 2998 22.4 µM | ACHN 9.35 µM | DU-145 31.4 µM | OVCAR-3 13.2 µM | SN12C 11.8 µM | SF-268 20 µM | SF-539 24.2 µM | OVCAR-5 19.7 µM | NCI-H23 16.7 µM | HL-60 2.44 µM | MCF7 9.2 µM | UACC-62 16.4 µM | M14 16.5 µM | U-251 17.4 µM | CAKI-1 1.91 µM

CN(C)CCNC(=O)c1cccc2c(NC(CS)C(=O)O)c3ccccc3nc12 (centres undefined)
inactive: K562 3.79 µM | NCI-H460 15 µM | 786-0 6.64 µM | EKVX 11.3 µM | HCC 2998 6.21 µM | ACHN 4.49 µM | DU-145 10.5 µM | OVCAR-3 13 µM | SN12C 2.6 µM | SF-268 7.94 µM | SF-539 2.41 µM | OVCAR-5 4.52 µM | NCI-H23 8.22 µM | HL-60 3.3 µM | MCF7 2.95 µM | UACC-62 21.6 µM | M14 4.39 µM | U-251 6.38 µM | CAKI-1 5.75 µM

O=c1oc2ccc(Cl)cc2cc1C1=CSC2=NCCN12
inactive: K562 18.2 µM | NCI-H460 30.3 µM | 786-0 18.4 µM | EKVX 20.6 µM | HCC 2998 14 µM | ACHN 37.7 µM | DU-145 19.3 µM | OVCAR-3 18.4 µM | SN12C 17.4 µM | SF-268 17.8 µM | SF-539 28.6 µM | OVCAR-5 50.5 µM | NCI-H23 21.4 µM | HL-60 21.7 µM | MCF7 19.6 µM | UACC-62 19.5 µM | M14 31.6 µM | U-251 23.2 µM | CAKI-1 44.5 µM

Nc1cc(O)c2c(c1O)C(=O)C=CC2=O
inactive: K562 5.78 µM | NCI-H460 9.57 µM | 786-0 7.89 µM | EKVX 17.9 µM | HCC 2998 9.31 µM | ACHN 12.3 µM | DU-145 18.2 µM | OVCAR-3 2.64 µM | SN12C 16.1 µM | SF-268 22.9 µM | SF-539 18.9 µM | OVCAR-5 20.8 µM | NCI-H23 8.99 µM | HL-60 2.21 µM | MCF7 7.13 µM | UACC-62 11.4 µM | M14 7.76 µM | U-251 18.2 µM | CAKI-1 18.6 µM

CCCCCCCCCCCCCCCCCc1cccc(OCOCCOC)c1C(=O)O
inactive: K562 30.5 µM | NCI-H460 21.5 µM | 786-0 18.6 µM | EKVX 18.9 µM | HCC 2998 19.1 µM | ACHN 19.1 µM | DU-145 17.7 µM | OVCAR-3 16.9 µM | SN12C 22.4 µM | SF-268 17.2 µM | SF-539 16.2 µM | OVCAR-5 16.8 µM | NCI-H23 15.2 µM | HL-60 20.9 µM | MCF7 21.7 µM | UACC-62 17.7 µM | M14 16.5 µM | U-251 20.3 µM | CAKI-1 19.1 µM

CC(C)C(Br)CCC1=CCC(Br)(Br)C1 (centres undefined)
inactive: K562 4.57 µM | NCI-H460 16.7 µM | 786-0 15.7 µM | EKVX 17.9 µM | HCC 2998 14.9 µM | ACHN 16.9 µM | DU-145 18.4 µM | OVCAR-3 13 µM | SN12C 4.2 µM | SF-268 16.8 µM | SF-539 19.2 µM | OVCAR-5 16.7 µM | NCI-H23 9.1 µM | HL-60 3.4 µM | MCF7 10.8 µM | UACC-62 6.58 µM | M14 3.81 µM | U-251 15.4 µM | CAKI-1 17.2 µM
